In patent US6841567B1, “Cyclic substituted fused pyrrolocarbazoles and isoindolones” (Cephalon, Inc., priority 1999, dated 2005):

Legend:
[1] = target: T1, baculovirus-expressed human trkA cytoplasmic domain (Homo sapiens, UniProt P04629); assay: Inhibition of trkA tyrosine kinase activity (ELISA-based assay); assay type: biochemical; conditions: for IC50: 40 μM ATP
T1 construct: baculovirus-expressed human trkA cytoplasmic domain; made in house; host or cells: baculovirus expression system
Experimental: Selected cyclic substituted fused pyrrolocarbazole and isoindolone compounds were tested for their ability to inhibit the kinase activity of baculovirus-expressed human trkA cytoplasmic domain using an ELISA-based assay as previously described (Angeles et al., Anal. Biochem. 236: 49-55, 1996). Briefly, the 96-well microtiter plate was coated with substrate solution (recombinant human phospholipase C-γ1/glutathione S-transferase fusion protein (Rotin et al., EMBO J., 11: 559-567, 1992). Inhibition studies were performed in 100 μl assay mixtures containing 50 mM Hepes, pH 7.4, 40 μM ATP, 10 mM MnCl2, 0.1% BSA, 2% DMSO, and various concentrations of inhibitor. The reaction was initiated by addition of trkA kinase and allowed to proceed for 15 minutes at 37° C. An antibody to phosphotyrosine (UBI) was then added, followed by a secondary enzyme-conjugated antibody, alkaline phosphatase-labelled goat antII-mouse IgG (Bio-Rad). The activity of the bound enzyme was measured via an amplified detection system (Gibco-BRL). Inhibition data were analyzed using the sigimoidal dose-response (variable slope) equation in GraphPad Prism.

[2] = test system: ChAT activity in dissociated rat embryonic spinal cord culture; assay: Enhancement of spinal cord ChAT activity; assay type: cell-based
Description: As discussed above, CHAT is a specific biochemical marker for functional cholinergic neurons. Cholinergic neurons represent a major cholinergic input into the hippocampal formation, olfactory nucleus, interpeduncular nucleus, cortex, amygdala, and parts of the thalamus. In the spinal cord, the motor neurons are cholinergic neurons which contain CHAT (Phelps et al., J. Comp. Neurol. 273:459-472 (1988)). ChAT activity has been used to study the effects of neurotrophins (e.g., NGF or NT-3) on the survival and/or function of cholinergic neurons. The ChAT assay also serves as an indication of the regulation of ChAT levels within cholinergic neurons.
For example, in these assays, a compound was directly added to a dissociated spinal cord culture. Compounds which increased ChAT activity at least 120% of the control activity were considered active.
Methods: Fetal rat spinal cord cells were dissociated, and experiments were performed as described (Smith et al., J. Cell Biology 101:1608-1621 (1985); Glicksman et al., J. Neurochem. 61:210-221 (1993)). […] ChAT activity was measured after 2 days in vitro using a modification of the Fonnum procedure (Fonnum, J. Neurochem. 24:407-409 (1975)) according to McManaman et al. and Glicksman et al. (McManamnan et al., Developmental Biology 125:311-320 (1988); Glicksman et al., J. Neurochem., supra).

[3] = target: T2, PDGFβ receptor kinase domain (recombinant human PDGFRβ) (Homo sapiens, UniProt P09619); assay: Inhibition of platelet derived growth factor receptor kinase activity (ELISA); assay type: biochemical; conditions: for inhibition at 0.3 µM: 300 nM compound, read-out: PDGFRβ % inh @ 300 nM (values in parentheses)
T2 construct: kinase activity of baculovirus-expressed PDGFβ receptor kinase domain; made in house; host or cells: baculovirus expression system
Experimental: Cyclic substituted fused pyrrolocarbazole and isoindolone compounds were examined for their inhibitory effects on the kinase activity of baculovirus-expressed PDGFβ receptor kinase domain using the trkA kinase ELISA described above. Assays were performed in substrate (PLC-γ/GST)-coated 96-well microtiter plates. Each 100-μl reaction mixture contained 50 mM HEPES, pH 7.4, 20 μM ATP, 10 mM MnCl2, 0.1% BSA, 2% DMSO, and various concentrations of inhibitor. The reaction was initiated by addition of prephosphorylated recombinant human enzyme (10 ng/ml PDGFRβ) and allowed to proceed for 15 minutes at 37° C. The prephosphorylated enzyme was prepared prior to use by incubation of the kinase in buffer containing 20 μM ATP and 10 mM MnCl2 for 1 hour at 4° C. Detection of phosphorylated product was done by adding horseradish peroxidase (HRP)-conjugated antII-phosphotyrosine antibody (UBI). The HRP substrate solution containing 3,3′-5,5′-tetramethylbenzidine and hydrogen peroxide was later added and the plates were incubated for 10 minutes at room temperature. The reaction was quenched with acid and the resulting absorbance was read at 450 nm using a Microplate Bio-kinetics Reader (Bio-Tek Instrument EL 312e). Inhibition data were analyzed using the sigmoidal dose-response (variable slope) equation in GraphPad Prism.

[4] = target: T3, trkA (NIH3T3 cells transfected with trkA) (Homo sapiens, UniProt P04629); assay: Inhibition of NGF-stimulated trk phosphorylation in a whole cell preparation; assay type: cell-based; conditions: NGF 10 ng/ml
T3 construct: expressed in transfected cells; host or cells: NIH3T3
Experimental: NIH3T3 cells transfected with trkA were grown in 100 mm dishes. Subconfluent cells were serum-starved by replacing media with serum-free 0.05% BSA-DMEM containing compound (100 nM and 1 μM) or DMSO (added to controls) for one hour at 37° C. NGF (Harlan/Bioproducts for Science) was then added to the cells at a concentration of 10 ng/ml for 5 minutes. Cells were lysed in buffer containing detergent and protease inhibitors. Clarified cell lysates were normalized to protein using BCA method and immunoprecipitated with antII-trk antibody. Polyclonal antII-trk antibody was prepared against a peptide corresponding to the 14 amino acids at the carboxy terminus of trk (Martin-Zanca et al., Mol. Cell. Biol. 9: 24-33, 1989). The immune complexes were collected on Protein A Sepharose beads (Sigma Chem. Co., St. Lois, Mo.), separated by SDS polyacrylamide gel electrophoresis (SDS-PAGE), and transferred to a polyvinylidene difluoride (PVDF) membrane. The membrane was immunoblotted with antII-phosphotyrosine antibody (UBI), followed by incubation with horseradish peroxidase coupled goat antII-mouse IgG (Bio-Rad Laboratories, Hercules, Calif.). Phosphorylated proteins were visualized using ECL (Arnersham Life Science, Inc., Arlington Heights, Ill.). The area of the trk protein band was measured and compared to NGF-stimulated control. The inhibition scoring system used, based on percent decrease in trk protein band, was as follows: 0=no decrease; 1=1-25%; 2=26-49%; 3=50-75%; 4=76-100%.

[5] = target: T4, VEGF receptor (human flk-1, KDR, VEGFR2) kinase domain (Homo sapiens, UniProt P35968); assay: Inhibition of vascular endothelial growth factor receptor kinase activity (ELISA); assay type: biochemical; conditions: for inhibition at 0.3 µM: 300 nM compound, read-out: VEGF receptor kinase activity % Inh. @ 300 nM (values in parentheses)
T4 construct: VEGF receptor (human flk-1, KDR, VEGFR2) kinase domain; made in house; host or cells: baculovirus expression system
Experimental: Cyclic substituted fused pyrrolocarbazole and isoindolone compounds were examined for their inhibitory effects on the kinase activity of baculovirus-expressed VEGF receptor (human flk-1, KDR, VEGFR2) kinase domain using the procedure described for the trkA kinase ELISA assay described above. The kinase reaction mixture, consisting of 50 mM Hepes, pH 7.4, 40 μM ATP, 10 mM MnCl2, 0.1% BSA, 2% DMSO, and various concentrations of inhibitor, was transferred to PLC-γ/GST-coated plates. VEGFR kinase was added and the reaction was allowed to proceed for 15 min. at 37 C. Detection of phosphorylated product was accomplished by addition of antII-phosphotyrosine antibody (UBI). A secondary enzymeconjugated antibody was delivered to capture the antibody-phosphorylated PLC-γ/GST complex. The activity of the bound enzyme was measured via an amplified detection system (Gibco-BRL). Inhibition data were analyzed using the sigmoidal dose-response (variable slope) equation in GraphPad Prism.

[6] = target: protein kinase C (UBI; mixed isozymes of a, b, g); assay: Inhibition of protein kinase C activity (Millipore Multiscreen TCA in-plate assay); assay type: biochemical
Experimental: Protein kinase C activity was assessed using the Millipore Multiscreen TCA “in-plate” assay as described in Pitt, A. M. and Lee, C. (J. Biomol. Screening, 1: 47-51, 1996). Assays were performed in 96-well Multiscreen-DP plates (Millipore). Each […] assay mixture contained 20 mM Hepes, pH 7.4, 10 mM MgCl2, 2.5 mM EGTA, 2.5 mM CaCl2, […] phosphatidyl serine, […] diolein, […] histone H-1 (Fluka), […] [γ-^32P]ATP, 1.5 ng protein kinase C (UBI; mixed isozymes of a, b, g), 0.1% BSA, 2% DMSO, and test cyclic substituted fused pyrrolocarbazole compound. The reaction was allowed to proceed for 10 min at 37° C., then quenched by adding ice cold 50% trichloroacetic acid. The plates were allowed to equilibrate for 30 min at 4° C., then washed with ice cold 25% TCA. Scintillation cocktail was added to the plates, and the radioactivity was determined using Wallac MicroBeta 1450 PLUS scintillation counter. The IC50 values were calculated by fitting the data to the sigmoidal dose-response (variable slope) equation in GraphPad Prism.

T1 sequence (P04629 440-796 limits assumed): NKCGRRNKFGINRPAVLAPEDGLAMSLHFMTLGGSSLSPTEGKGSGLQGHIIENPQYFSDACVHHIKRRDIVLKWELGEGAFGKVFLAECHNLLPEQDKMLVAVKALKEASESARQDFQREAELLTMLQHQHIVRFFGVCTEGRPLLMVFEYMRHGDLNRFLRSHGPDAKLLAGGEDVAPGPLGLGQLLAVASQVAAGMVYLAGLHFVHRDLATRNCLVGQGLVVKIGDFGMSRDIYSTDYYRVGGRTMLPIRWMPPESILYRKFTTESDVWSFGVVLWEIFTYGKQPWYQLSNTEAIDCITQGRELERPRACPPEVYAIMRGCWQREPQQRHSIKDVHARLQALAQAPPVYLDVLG
T4 sequence (P35968 834-1162 limits assumed): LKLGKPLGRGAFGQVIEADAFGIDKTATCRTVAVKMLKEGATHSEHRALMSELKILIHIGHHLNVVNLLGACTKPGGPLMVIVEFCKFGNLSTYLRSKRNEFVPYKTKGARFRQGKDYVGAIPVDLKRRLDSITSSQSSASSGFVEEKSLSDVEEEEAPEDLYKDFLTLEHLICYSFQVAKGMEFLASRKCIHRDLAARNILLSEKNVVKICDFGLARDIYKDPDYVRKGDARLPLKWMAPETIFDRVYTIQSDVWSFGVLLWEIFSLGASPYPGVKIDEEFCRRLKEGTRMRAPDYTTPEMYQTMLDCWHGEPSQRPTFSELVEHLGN
T2 sequence (P09619 600-962 limits assumed): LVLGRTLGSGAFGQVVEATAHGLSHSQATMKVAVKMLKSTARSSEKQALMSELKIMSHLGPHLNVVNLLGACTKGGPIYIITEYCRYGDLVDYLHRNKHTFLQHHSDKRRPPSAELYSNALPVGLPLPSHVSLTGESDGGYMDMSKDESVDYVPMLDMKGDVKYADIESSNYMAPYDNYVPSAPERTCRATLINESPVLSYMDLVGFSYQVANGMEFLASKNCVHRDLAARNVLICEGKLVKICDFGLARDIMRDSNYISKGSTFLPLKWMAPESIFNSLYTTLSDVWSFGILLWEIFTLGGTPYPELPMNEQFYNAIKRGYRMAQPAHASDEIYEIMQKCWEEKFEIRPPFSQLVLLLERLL
T3 sequence (P04629 33-796, species assumed): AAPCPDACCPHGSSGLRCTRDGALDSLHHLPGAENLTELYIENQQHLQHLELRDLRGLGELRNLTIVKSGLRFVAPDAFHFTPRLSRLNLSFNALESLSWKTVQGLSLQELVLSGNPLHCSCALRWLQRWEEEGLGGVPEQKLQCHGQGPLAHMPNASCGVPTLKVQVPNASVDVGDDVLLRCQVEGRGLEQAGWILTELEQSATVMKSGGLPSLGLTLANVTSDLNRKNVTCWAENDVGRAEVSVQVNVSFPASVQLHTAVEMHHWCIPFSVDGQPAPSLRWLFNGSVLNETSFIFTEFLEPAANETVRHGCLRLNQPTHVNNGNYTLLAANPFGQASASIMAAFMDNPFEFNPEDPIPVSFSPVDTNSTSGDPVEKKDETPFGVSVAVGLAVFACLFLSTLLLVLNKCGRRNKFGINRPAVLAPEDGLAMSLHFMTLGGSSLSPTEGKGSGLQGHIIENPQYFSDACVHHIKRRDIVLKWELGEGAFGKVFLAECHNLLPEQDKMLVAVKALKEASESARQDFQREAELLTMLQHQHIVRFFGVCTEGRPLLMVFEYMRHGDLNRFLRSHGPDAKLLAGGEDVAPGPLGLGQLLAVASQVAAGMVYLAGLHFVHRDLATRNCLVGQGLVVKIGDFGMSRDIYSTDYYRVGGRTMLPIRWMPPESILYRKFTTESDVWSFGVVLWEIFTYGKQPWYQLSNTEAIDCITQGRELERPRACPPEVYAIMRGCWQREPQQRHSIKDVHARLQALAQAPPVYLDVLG

Row | IC50 [1] [nM] | inhibition at 0.3 µM [3] [%] | inhibition at 0.3 µM [5] [%] | SMILES | further results
1 | – | – | – | CC(C)(C)C(=O)OCC1(C2c3ccccc3-c3c4c(c5c([nH]c6ccccc65)c32)CNC4=O)CCCO1 (mixture of isomers) [II-20] | trkA kinase activity % Inh. @ 300 nM (values in parentheses) ([1]; 300 nM compound): (39) %; Spinal Cord ChAT (% control) Activity at 30 nM ([2]; 30 nM compound): 132 % control; Spinal Cord ChAT (% control) Maximal Activity ([2]; @ 500 nM): 191 @ 500 nM % control
2 | 19 | – | – | O=C1NCc2c1c1c(c3[nH]c4ccccc4c23)C(C2CCC(O)O2)c2ccccc2-1 (racemic) [II-23] | IC50 ([3]; 20 μM ATP): 648 nM; Cell Score @ 100 nM (percent decrease in trk protein band) ([4]; 100 nM compound): 2 (2=26-49%); Cell Score @ 1 uM (percent decrease in trk protein band) ([4]; 1 uM compound): 4 (4=76-100%); IC50 ([5]; 40 μM ATP): 79 nM; IC50 [6]: 644 nM
3 | 399 | 29 | 20 | CC1C=CC(C(O)C2c3ccccc3-c3c4c(c5c([nH]c6ccccc65)c32)CNC4=O)n2c(=O)n(-c3ccccc3)c(=O)n21 (stereo not shown) [II-64] | –
4 | 320 | 5 | 26 | O=C1NCc2c1c1c(c3c2c2ccccc2n3CC2CC2)C(CC2CC2)c2ccccc2-1 (stereo not shown) [II-65] | Protein kinase C activity, values in parentheses ([6]; concentration not given): (20)
5 | 555 | 23 | 65 | COC(=O)[C@H]1CSC(CCn2c3ccccc3c3c4c(c5c(c32)Cc2ccccc2-5)C(=O)NC4)N1 (stereo partly shown) [II-67] | –
6 | 245 | 0 | 31 | CCNC(=O)OCC1(C2c3ccccc3-c3c4c(c5c6ccccc6n(C(=O)NCC)c5c32)CNC4=O)CCCO1 (stereo not shown) [II-68] | –
7 | 24 | 18 | 49 | CCNC(=O)n1c2ccccc2c2c3c(c4c(c21)C(C1(CO)CCCO1)c1ccccc1-4)C(=O)NC3 (stereo not shown) [II-69] | –
